{"source": "patent US20250195468A1", "about": "“METHODS AND COMPOSITIONS FOR TREATING COLORECTAL CANCER WITH INDOXYL SULFATE” (National Institute of Immunology, priority 2023, published 2025)", "key": {"HCT-116 cells [1]": {"tested_on": "HCT-116 cells", "test": "Cell viability by MTT assay", "assay_type": "cell-based, human", "conditions": "for viability at 10000 µM: Homo sapiens, HCT-116, 10 mM, untreated = 100%", "procedure": "(§1) Human colon epithelial adenocarcinoma cell lines, HT-29 and HCT-116 (procured from ATCC), are commonly utilized for CRC research. HT-29 cells were cultured in McCoy 5A media (Gibco) supplemented with 10% heat-inactivated FBS (Gibco) and penicillin-streptomycin (Sigma-Aldrich: Merck KGaA, Germany). On the other hand, HCT-116 cells were cultured in Dulbecco's modified Eagle's medium-F12 nutrient mixture (DMEM-F12: Gibco) supplemented with 10% heat-inactivated FBS (Gibco) and penicillin-streptomycin (Sigma-Aldrich: Merck KGaA, Germany). The cells were incubated in a humidified incubator at 37° C. with 5% CO2.\n(§2) To evaluate the impact of IS treatment, cell viability was assessed using Thiazolyl Blue Tetrazolium Bromide (MTT) dye. HT-29 and HCT-116 cells were seeded at a density of 3000 cells per well in a 96-well plate. After 24 hours of seeding, the cells were exposed to various concentrations of IS, including 0.018 mM, 0.037 mM, 0.075 mM, 0.15 mM. 0.31 mM, 0.62 mM. 1.25 mM, 2.5 mM, 5 mM, and 10 mM. Triplicate wells were treated with IS for three different incubation periods: 24 hours, 48 hours, and 72 hours. After the respective incubation periods. 20 μl of MTT dye (5 mg/ml) was added to each well and incubated for 3 hours. The yellow MTT dye is converted into purple formazan crystals by the mitochondrial succinate dehydrogenase enzyme, NAD (P) H. Following the incubation, 100 μl of dimethyl sulphoxide (DMSO) was added to dissolve the formazan crystals. Formazan crystal dissolve immediately after adding DMSO, so taken the reading just after adding the DMSO. The intensity of the purple color is directly proportional to cell viability. Absorbance was measured at 570 nm using a Multiskan Sky microplate spectrophotometer (Thermo Scientific). Non-treated cells served as controls and were considered 100% viable."}, "HT-29 cells [2]": {"tested_on": "HT-29 cells", "test": "Cell viability by MTT assay", "assay_type": "cell-based, human", "conditions": "for viability at 10000 µM: Homo sapiens, HT-29, 10 mM, untreated = 100%", "procedure": "as §1, §2"}, "HT-29 cells [3]": {"tested_on": "HT-29 cells", "test": "CellTiter-Glo luminescent cell viability assay (ATP content)", "assay_type": "cell-based", "conditions": "Homo sapiens; HT-29, 72 hours; concentration not stated in b112 (FIG. 2: most cytotoxic at 10 mM)", "procedure": "Cell viability was also assessed using the CellTiter-Glo R: Assay kit, which measures the amount of ATP to indicate cellular metabolic activity. HT-29 and HCT-116 cells were cultured in a 96-well plate at a density of 2500 cells per well. After 24 hours of seeding, the cells were exposed to various concentrations of IS, including 0.018 mM, 0.037 mM, 0.075 mM. 0.15 mM, 0.31 mM, 0.62 mM, 1.25 mM, 2.5 mM, 5 mM, and 10 mM. Triplicate wells were treated with IS for two different incubation periods: 48 hours and 72 hours. After the respective incubation periods. the assay was performed following the manufacturer's protocol. The details of the protocol can be found in the kit provided by the manufacturer. In summary, luminescence was measured using a Sirius Luminometer V3.2 (Berthold DETECTIONN SYSTEMS) with a measurement delay time of 2 seconds and a measurement time of 5 seconds. Non-treated cells were used as controls, representing 100% metabolically active cells in terms of ATP content."}, "HCT-116 cells [4]": {"tested_on": "HCT-116 cells", "test": "Cell cycle assay, PI flow cytometry", "assay_type": "cell-based, human", "conditions": "HCT-116, 48 hours, 5 mM and 10 mM (not resolved); increased from 18.1±1.99", "procedure": "(§3) The evaluation of the effect of IS on the progression of HCT-116 and HT-29 cell cycle assay involved analysing the G0/G1 phase, Synthesis(S) phase, and G2/M phase. Cells were initially cultured in a 6-well plate with a seeding density of (2×10^5) cells/well in duplicate. After 24 hours of seeding, the cells were treated with varying concentrations of IS (1.25 mM, 5 mM, and 10 mM). Following a 48-hour processing period, the cells were detached using trypsin and washed twice with refrigerated PBS. The resulting cell pellet was then dissolved in 200 ul of chilled PBS and fixed by adding 800 ul of 70% ethanol dropwise. The samples were stored at −20° C. overnight for later use. After the overnight incubation, the cells were centrifuged at 2000 rpm for 5 minutes at 4° C. The pellet was dissolved in 300 ul of PBS, 50 ul of RNase A (100 ug/ml), and 35 ul of Triton X-100 (0.1%), and incubated at 37° C. for 30 minutes. Subsequently, 20 ul of PI was added from a stock solution of 500 μg/ml, and the samples were incubated in the dark for an additional 30 minutes. Flow cytometry (BD Biosciences, FACS Verse, Germany) was employed to measure PI staining in 1×10^3 cells. The Flow Jo software was utilized for the analysis of cell distribution across the different phases of the cell cycle."}, "HT-29 cells [5]": {"tested_on": "HT-29 cells", "test": "Cell cycle assay, PI flow cytometry", "assay_type": "cell-based, human", "conditions": "HT-29, 48 hours, 5 mM and 10 mM (not resolved); increased from 14.2±0.5", "procedure": "as §3"}, "[6]": {"tested_on": "human adenocarcinoma cells", "test": "Oxidative stress by DHE staining", "assay_type": "cell-based", "conditions": "DHE staining after 48 hours of treatment", "procedure": "In the in vitro study, cells were exposed to various doses of indoxyl sulfate ranging from 0.038 mM to 10 mM for three different incubation periods (24 hours, 48 hours, and 72 hours). A decrease in cell proliferation efficiency was observed after 48 hours of treatment, with the most significant effects observed at concentrations of 5 mM and 10 mM of indoxyl sulfate. […] Decrease in cellular ATP content indicates the diminished cellular metabolic activity and may be linked with cell death. Considering these findings. the apoptotic effect of indoxyl sulfate was examined. […] Another study on the osteoblast cell line MC3T3-E1 also confirmed that IS acts as a bone toxin by inducing cell apoptosis and inhibiting differentiation. […] To account for this study. cells were also assessed for oxidative stress in this invention by staining them with […] (DHE) after 48 hours of treatment. […] The potential for IS to cause DNA damage was also investigated."}}, "note": "Counter-ions that a name gives are not always drawn.", "data": [{"compound": "O=S(=O)(O)Oc1c[nH]c2ccccc12", "note": "[IS, Indoxyl Sulfate]", "values": [{"measurement": "cell viability", "setting": "HCT-116 cells [1]; 0.62 mM, cell line not given", "value": "cell viability unexpectedly increased"}, {"measurement": "viability at 10000 µM", "setting": "HCT-116 cells [1]; 24 hours", "value": 30, "unit": "%"}, {"measurement": "viability at 10000 µM", "setting": "HCT-116 cells [1]; 48 hours", "value": 7, "unit": "%"}, {"measurement": "viability at 10000 µM", "setting": "HCT-116 cells [1]; 72 hours", "value": 4, "unit": "%"}, {"measurement": "cell viability", "setting": "HT-29 cells [2]; 0.62 mM, cell line not given", "value": "cell viability unexpectedly increased"}, {"measurement": "viability at 10000 µM", "setting": "HT-29 cells [2]; 24 hours", "value": 41, "unit": "%"}, {"measurement": "viability at 10000 µM", "setting": "HT-29 cells [2]; 48 hours", "value": 30, "unit": "%"}, {"measurement": "viability at 10000 µM", "setting": "HT-29 cells [2]; 72 hours", "value": 17, "unit": "%"}, {"measurement": "viability at 10000 µM", "setting": "HT-29 cells [3]", "value": 19, "unit": "%"}, {"measurement": "number of cells in the G2/M phase", "setting": "HCT-116 cells [4]", "value": "22.7±3.2"}, {"measurement": "number of cells in the G2/M phase", "setting": "HT-29 cells [5]", "value": "17.3±0.7"}, {"measurement": "production of ROS", "setting": "[6]", "value": "did not cause any production of ROS"}]}]}
